One assay has as its target T1, trypsin (Bos taurus, UniProt P00760).
T1 sequence (P00760 24-246): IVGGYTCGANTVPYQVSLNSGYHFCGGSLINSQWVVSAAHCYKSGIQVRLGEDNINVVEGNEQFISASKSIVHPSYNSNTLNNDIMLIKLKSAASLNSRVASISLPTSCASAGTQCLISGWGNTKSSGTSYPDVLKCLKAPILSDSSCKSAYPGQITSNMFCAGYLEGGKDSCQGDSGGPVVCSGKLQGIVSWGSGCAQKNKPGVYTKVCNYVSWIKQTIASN
The experiment in a line: Enzyme inhibition, TAME hydrolysis, trypsin (method of Muramatsu et al.). In kind it is biochemical. Conditions: hydrolysis of TAME; read-out: ID50, trypsin. Here is the method:
(§1) The enzyme inhibitory activity was determined according to the method of Muramatsu et al. [M. Muramatsu, T. Onishi, S. Makino, Y. Hayashi and S. Fujii, J. Biochem., 58, 214 (1965)]. The data summarized in Table 1 are expressed in terms of molar concentration (ID50) of the test compound which inhibits 50% of the activity of each enzyme to hydrolyze TAME (tosylarginine methyl ester).

In the next assay the target is thrombin (Bos taurus, UniProt P00735). The experiment in a line: Enzyme inhibition, TAME hydrolysis, thrombin (method of Muramatsu et al.). The assay is classed as biochemical. Here is the method: as §1
A further assay has as its target kallikrein. Nature of the assay: Enzyme inhibition, TAME hydrolysis, kallikrein (method of Muramatsu et al.). The assay is classed as biochemical. The conditions noted are these: read-out: ID50, kallikrein. On the procedure: as §1
The next assay deals with plasmin (Homo sapiens, UniProt P00747). The experiment in a line: Enzyme inhibition, TAME hydrolysis, plasmin (method of Muramatsu et al.). The assay is classed as biochemical. Conditions: read-out: ID50, plasmin. On the procedure:
as §1

For assay [1], the system named is complement mediated hemolysis. Nature of the assay: Inhibition of complement mediated hemolysis (method of Baker et al.). The assay is classed as cell-based.

Molecules are shown by their SMILES.

The inhibition is the drop in the measured response relative to a control, in per cent.

plasmin, sequence (P00747 581-810 limits assumed): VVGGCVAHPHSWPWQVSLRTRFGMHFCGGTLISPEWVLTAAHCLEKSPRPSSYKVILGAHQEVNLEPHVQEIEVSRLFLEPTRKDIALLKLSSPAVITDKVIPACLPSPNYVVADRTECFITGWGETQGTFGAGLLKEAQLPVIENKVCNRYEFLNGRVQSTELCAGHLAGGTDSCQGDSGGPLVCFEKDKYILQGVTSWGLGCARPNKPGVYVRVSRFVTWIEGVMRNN
plasmin, sequence (P00747 97-580 partner limits assumed): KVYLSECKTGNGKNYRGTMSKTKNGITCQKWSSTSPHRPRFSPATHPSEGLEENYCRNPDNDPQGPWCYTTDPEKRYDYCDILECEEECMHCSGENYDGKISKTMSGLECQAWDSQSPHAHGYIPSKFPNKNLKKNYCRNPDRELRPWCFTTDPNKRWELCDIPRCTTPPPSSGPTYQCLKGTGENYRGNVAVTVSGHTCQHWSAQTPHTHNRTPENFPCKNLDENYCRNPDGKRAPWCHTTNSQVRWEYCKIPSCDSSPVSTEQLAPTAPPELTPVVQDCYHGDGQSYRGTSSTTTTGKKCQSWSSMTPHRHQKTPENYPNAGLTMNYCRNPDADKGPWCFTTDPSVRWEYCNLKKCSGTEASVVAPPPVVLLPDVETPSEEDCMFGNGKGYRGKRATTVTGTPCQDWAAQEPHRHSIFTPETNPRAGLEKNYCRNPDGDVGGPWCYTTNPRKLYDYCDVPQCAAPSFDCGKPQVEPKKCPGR

In the case of `CCCCCCCCCC(=O)Oc1ccc2cc(C(=N)N)ccc2c1` [Compound No. 5, 6-amidino-2-naphthyl caprate], the IC50 is 6 µM on trypsin, 100 µM on kallikrein and 10 µM at plasmin. Also, the inhibition at 10 µM on thrombin (1×10^-5 M, hydrolysis of TAME, read-out: percentage inhibition, thrombin (figure in parentheses)) worked out at 26%.

`CCCCCCCCCCCC(=O)Oc1ccc2cc(C(=N)N)ccc2c1` [Compound No. 6, 6-amidino-2-naphthyl laurate]: the “Inhibition of complement mediated hemolysis (%)” value (“Inhibition … (%)” below) in assay [1] (concentration 1 × 10^-4) was 13%; in assay [1] (concentration 1 × 10^-5) it was 13%; in assay [1] (concentration 1 × 10^-6), 27%; in assay [1] (concentration 1 × 10^-7) it was 15%.

On to `C/C=C/C=C/C(=O)Oc1ccc2cc(C(=N)N)ccc2c1` [Compound No. 9, 6-amidino-2-naphthyl sorbate], for which the “Inhibition … (%)” value in assay [1] (concentration 1 × 10^-4) was determined as 94%; in assay [1] (concentration 1 × 10^-5) it was 89%; in assay [1] (concentration 1 × 10^-6) it was 37%; in assay [1] (concentration 1 × 10^-7) it was 14%.

As for `N=C(N)c1ccc2cc(OC(=O)CC3C=CCC3)ccc2c1` (stereo not shown) [Compound No. 13, 6-amidino-2-naphthyl 2-cyclopenteneacetate], the “Inhibition … (%)” value was determined as 39% in assay [1] (concentration 1 × 10^-4), 21% in assay [1] (concentration 1 × 10^-5), 10% in assay [1] (concentration 1 × 10^-6) and 10% in assay [1] (concentration 1 × 10^-7).

Regarding `N=C(N)c1ccc2cc(OC(=O)CCCC3CCCCC3)ccc2c1` [Compound No. 15, 6-amidino-2-naphthyl 4-cyclohexylbutyrate], the IC50 against thrombin and on kallikrein was over 10 µM in each case.

`N=C(N)c1ccc2cc(OC(=O)CCCCCN)ccc2c1` [Compound No. 17, 6-amidino-2-naphthyl ε-aminocaproate]: the IC50 on trypsin was 200 µM; at thrombin it was 600 µM; on kallikrein, 50 µM; at plasmin it was 40 µM.

The record behind these values is US4496584A, “Amidine derivatives with anti-complement activity” (Torii & Co. Ltd., priority 1981, dated 1985).
